Here are results for 8 molecules from patent US11780821B2, “Inhibitors of fibroblast activation protein” (Praxis Biotech LLC, priority 2017, dated 2023).

By IC50 is commonly meant the midpoint of a concentration-inhibition curve.

What all share (assay type): biochemical
The target in assay [1] is T1, recombinant mouse FAPα (rmFAPα) (Mus musculus, UniProt P97321).
T1 construct: purchased R&S system (so in the source)
T1 sequence (P97321 1-761): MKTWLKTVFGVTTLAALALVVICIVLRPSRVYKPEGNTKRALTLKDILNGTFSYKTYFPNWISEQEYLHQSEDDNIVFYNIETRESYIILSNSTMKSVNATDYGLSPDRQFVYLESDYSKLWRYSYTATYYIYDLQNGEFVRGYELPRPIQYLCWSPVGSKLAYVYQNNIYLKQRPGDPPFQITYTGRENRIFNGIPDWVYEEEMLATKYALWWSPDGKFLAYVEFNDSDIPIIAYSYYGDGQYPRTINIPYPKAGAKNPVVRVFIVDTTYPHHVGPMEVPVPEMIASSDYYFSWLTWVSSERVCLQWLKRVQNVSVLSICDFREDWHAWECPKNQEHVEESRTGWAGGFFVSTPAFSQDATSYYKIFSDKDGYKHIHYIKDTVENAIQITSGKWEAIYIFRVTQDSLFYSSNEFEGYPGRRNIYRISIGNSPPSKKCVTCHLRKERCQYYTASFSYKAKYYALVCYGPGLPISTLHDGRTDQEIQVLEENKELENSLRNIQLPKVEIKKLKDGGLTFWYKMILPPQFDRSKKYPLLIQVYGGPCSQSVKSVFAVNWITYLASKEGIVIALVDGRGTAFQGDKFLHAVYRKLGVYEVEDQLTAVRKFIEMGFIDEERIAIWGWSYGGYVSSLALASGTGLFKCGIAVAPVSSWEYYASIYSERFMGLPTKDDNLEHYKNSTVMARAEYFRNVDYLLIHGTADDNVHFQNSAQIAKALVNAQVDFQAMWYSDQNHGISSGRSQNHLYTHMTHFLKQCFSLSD
Put plainly: FAPα enzymatic exopeptidase (dipeptidase) activity assay. Particulars: 1 μM test compound; Z-Gly-Pro-AMC substrate; read-out: rmFAPα (% exo inh @ 1 μM). The method, then: FAPα enzymatic exopeptidase (dipeptidase) activity assay. […] 7-Amino-4-Methylcoumarin (AMC) release was detected by measuring fluorescence at Ex/Em 380/460 nm using a Multifunction Microplate Reader (Synergy 4, Biotek). All measurements were carried out in duplicate. […] For the calculations, the average measurements from reactions containing only vehicle and substrate, without enzyme, were used as a blank and were subtracted from the rest of the measurements. Percent inhibition was calculated using the average measurements from reactions containing vehicle, enzyme, and substrate as the maximum of enzymatic activity. Measurements were performed as a single point.

For assay [2], the target named is T2, recombinant human FAPα (rhFAPα) (Homo sapiens, UniProt Q12884).
T2 construct: purchased R&S system (so in the source)
T2 sequence (Q12884 1-760): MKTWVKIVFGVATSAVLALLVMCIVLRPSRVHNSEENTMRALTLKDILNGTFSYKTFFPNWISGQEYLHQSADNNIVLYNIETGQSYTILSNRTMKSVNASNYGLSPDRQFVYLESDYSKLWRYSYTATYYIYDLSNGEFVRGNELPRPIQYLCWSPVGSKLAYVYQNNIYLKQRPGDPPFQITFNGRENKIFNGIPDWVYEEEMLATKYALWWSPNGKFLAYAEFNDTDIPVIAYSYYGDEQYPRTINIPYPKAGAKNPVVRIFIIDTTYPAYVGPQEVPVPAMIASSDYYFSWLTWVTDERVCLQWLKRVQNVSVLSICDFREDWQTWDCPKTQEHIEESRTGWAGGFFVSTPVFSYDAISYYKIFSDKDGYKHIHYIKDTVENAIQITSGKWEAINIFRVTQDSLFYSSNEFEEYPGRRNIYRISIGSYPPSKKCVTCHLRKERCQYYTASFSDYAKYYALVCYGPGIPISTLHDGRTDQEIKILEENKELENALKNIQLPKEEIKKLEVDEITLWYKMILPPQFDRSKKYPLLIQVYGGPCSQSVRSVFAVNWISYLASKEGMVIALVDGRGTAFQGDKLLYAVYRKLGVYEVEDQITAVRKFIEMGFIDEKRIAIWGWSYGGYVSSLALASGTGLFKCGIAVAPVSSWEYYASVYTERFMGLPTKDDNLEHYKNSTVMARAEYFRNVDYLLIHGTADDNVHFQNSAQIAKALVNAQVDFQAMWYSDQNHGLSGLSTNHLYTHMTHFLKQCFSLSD
The assay is described as above. Particulars: for inhibition at 1 µM: 1 μM test compound, Z-Gly-Pro-AMC substrate, read-out: rhFAPα (% exo inh @ 1 μM); for IC50: exopeptidase, read-out: rhFAPα (exo IC50).

For a further assay, the target named is T3, mouse plasma DPPIV (Mus musculus, UniProt P28843).
T3 construct: from tissue; host or cells: mouse plasma (C57BL/6, EDTA)
T3 sequence (P28843 37-760 limits assumed): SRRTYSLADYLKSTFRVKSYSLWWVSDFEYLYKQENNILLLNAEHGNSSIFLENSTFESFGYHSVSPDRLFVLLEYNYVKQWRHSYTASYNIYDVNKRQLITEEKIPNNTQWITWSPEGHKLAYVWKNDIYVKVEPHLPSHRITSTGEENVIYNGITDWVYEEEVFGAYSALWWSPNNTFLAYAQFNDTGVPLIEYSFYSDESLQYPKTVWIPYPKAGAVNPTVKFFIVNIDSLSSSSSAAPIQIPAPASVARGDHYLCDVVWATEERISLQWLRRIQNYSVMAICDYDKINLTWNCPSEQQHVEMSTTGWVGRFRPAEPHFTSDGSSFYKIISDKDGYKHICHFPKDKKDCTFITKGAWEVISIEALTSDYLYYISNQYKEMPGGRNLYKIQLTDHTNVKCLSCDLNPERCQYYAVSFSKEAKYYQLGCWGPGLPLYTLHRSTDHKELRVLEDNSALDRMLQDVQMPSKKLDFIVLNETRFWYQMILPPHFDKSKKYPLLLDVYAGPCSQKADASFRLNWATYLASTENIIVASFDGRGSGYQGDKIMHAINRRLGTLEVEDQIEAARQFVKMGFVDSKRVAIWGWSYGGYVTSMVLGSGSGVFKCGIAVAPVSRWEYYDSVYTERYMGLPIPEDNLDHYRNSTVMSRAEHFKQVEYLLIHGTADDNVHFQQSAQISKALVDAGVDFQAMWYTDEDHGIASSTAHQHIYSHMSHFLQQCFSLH
Put plainly: DPPIV enzymatic activity in mouse plasma. To be noted: C57BL/6 mouse plasma; H-Gly-Pro-AMC substrate. As for the experimental part:
Approximately 500 μL of whole blood from one C57BL/6 mouse was harvested into BD Microtainer® tubes (K2) EDTA (#365974, Becton Dickinson and Co.) via terminal cardiac puncture. The blood sample was immediately centrifuged at approximately 9000 g at 4° C. for 5 minutes. Plasma was separated and stored at −80° C. in aliquots of 300 μL. To assay baseline DPPIV enzymatic exopeptidase activity, 5 μL of thawed, mouse plasma was diluted (1:5) in buffer (100 mM Tris-HCl, 400 mM NaCl, 50 mM salicylic acid, 1 mM EDTA, pH 7.5) and mixed with 35 µL of the same buffer before being pre-incubated with different concentrations of 10 μL of test compounds or DMSO vehicle for 15 minutes at 37° C. in 96-well black plates (Nunc, #237108). After pre-incubation, 50 μL of 200 μM dipeptide substrate H-Gly-Pro-AMC (Bachem, #L-1225) was added to the mixture. The assay was performed for 1 hour at 37° C. 7-Amino-4-Methylcoumarin (AMC) release was detected measuring fluorescence at an excitation wavelength of 360 nm and an emission wavelength of 460 nm using a Multifunction Microplate Reader (Synergy 4, Biotek). All measurements were carried out at least in duplicate.

A further assay deals with T4, mouse plasma FAPα (Mus musculus, UniProt P97321).
T4 construct: from tissue; host or cells: mouse plasma (C57BL/6, EDTA)
T4 sequence (P97321 24-761 limits assumed): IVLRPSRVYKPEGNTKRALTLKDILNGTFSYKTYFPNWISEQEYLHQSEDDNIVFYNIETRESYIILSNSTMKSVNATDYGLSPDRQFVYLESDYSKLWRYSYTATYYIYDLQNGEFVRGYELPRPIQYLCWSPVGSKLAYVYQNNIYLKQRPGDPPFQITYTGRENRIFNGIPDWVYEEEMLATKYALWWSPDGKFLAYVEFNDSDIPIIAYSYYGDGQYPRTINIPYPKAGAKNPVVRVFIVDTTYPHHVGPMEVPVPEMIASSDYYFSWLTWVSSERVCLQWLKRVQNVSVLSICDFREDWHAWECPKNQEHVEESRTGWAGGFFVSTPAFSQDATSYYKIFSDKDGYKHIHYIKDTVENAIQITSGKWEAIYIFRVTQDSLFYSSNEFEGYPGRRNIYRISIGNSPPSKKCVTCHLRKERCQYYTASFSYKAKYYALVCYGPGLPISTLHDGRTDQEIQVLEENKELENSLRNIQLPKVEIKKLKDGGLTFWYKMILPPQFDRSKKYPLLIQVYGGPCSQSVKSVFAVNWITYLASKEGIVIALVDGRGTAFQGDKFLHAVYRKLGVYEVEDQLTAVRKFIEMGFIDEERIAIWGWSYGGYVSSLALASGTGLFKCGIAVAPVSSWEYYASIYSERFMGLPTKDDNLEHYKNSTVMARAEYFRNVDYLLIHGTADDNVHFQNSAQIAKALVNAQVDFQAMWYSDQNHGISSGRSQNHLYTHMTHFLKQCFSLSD
Put plainly: FAPα enzymatic activity in mouse plasma. To be noted: C57BL/6 mouse plasma; PRXS-AMC substrate; read-out: mouse plasma FAPα (PRXS-AMC) (exo IC50). As for the experimental part: The blood sample was immediately centrifuged at approximately 9000 g at 4° C. for 5 minutes. Plasma was separated and stored at −80° C. in aliquots of 300 μL. […] The assay was performed for 1 hour at 37° C. protected from light. 7-Amino-4-Methylcoumarin (AMC) release was detected measuring fluorescence at an excitation wavelength of 380 nm and an emission wavelength of 460 nm using a Multifunction Microplate Reader (Synergy 4, Biotek). All measurements were carried out at least as a single point.

For assay [3], the target named is T5, recombinant human DPPIV (rhDPPIV) (Homo sapiens, UniProt P27487).
T5 construct: purchased R&S system (so in the source)
T5 sequence (P27487 whole entry): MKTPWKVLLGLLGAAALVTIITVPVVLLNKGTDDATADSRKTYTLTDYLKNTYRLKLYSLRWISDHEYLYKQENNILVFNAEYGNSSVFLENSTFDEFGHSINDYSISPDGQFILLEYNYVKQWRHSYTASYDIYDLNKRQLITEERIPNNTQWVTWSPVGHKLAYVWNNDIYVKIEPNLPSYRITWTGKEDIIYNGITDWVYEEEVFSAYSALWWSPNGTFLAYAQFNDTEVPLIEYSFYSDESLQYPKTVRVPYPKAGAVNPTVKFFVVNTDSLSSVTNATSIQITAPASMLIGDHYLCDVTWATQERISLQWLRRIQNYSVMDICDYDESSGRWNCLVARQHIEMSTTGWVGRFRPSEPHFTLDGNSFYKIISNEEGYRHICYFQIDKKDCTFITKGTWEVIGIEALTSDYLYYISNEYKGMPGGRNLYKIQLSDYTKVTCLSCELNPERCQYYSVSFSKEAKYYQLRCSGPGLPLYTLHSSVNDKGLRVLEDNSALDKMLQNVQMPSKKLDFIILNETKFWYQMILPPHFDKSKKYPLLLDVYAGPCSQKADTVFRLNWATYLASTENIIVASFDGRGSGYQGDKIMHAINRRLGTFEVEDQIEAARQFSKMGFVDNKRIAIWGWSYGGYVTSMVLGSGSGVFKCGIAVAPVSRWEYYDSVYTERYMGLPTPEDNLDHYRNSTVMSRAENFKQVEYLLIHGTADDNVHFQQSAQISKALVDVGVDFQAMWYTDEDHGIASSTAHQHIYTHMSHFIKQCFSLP
Put plainly: DPPIV enzymatic activity assay. To be noted: H-Gly-Pro-pNA substrate.

For assay [4], the target named is T6, recombinant human DPP9 (rhDPP9) (Homo sapiens, UniProt Q86TI2).
T6 construct: purchased R&S system (so in the source)
T6 sequence (Q86TI2 whole entry): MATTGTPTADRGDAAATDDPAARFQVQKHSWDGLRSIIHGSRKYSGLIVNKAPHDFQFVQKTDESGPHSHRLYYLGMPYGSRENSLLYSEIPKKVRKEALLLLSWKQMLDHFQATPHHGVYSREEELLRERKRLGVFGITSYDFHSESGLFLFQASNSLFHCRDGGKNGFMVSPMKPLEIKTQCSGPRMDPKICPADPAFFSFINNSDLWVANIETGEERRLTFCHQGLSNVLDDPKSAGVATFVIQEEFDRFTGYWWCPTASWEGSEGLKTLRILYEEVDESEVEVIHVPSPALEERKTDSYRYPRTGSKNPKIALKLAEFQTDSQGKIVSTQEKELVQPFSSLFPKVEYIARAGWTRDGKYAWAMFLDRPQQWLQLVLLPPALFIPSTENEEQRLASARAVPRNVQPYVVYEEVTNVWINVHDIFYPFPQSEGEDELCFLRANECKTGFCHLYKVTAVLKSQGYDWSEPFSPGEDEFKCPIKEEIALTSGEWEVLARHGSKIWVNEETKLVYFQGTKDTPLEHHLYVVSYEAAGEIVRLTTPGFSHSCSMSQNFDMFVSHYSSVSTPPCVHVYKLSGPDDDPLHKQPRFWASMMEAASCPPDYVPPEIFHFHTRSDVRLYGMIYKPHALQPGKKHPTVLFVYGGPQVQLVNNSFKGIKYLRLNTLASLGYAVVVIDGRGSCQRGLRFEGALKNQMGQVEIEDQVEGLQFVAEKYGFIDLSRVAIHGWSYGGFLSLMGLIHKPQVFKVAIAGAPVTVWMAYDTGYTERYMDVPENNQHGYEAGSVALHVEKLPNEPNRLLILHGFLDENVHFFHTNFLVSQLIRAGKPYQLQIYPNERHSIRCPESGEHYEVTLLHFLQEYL
Put plainly: DPP9 enzymatic activity assay. Particulars: H-Gly-Pro-AMC substrate. The method, then:
(§1) 7-Amino-4-Methylcoumarin (AMC) release was detected by measuring fluorescence at Ex/Em 380/460 nm using a Multifunction Microplate Reader (Synergy 4, Biotek). All measurements were carried out in triplicate.

The target of assay [5] is T7, recombinant human PREP (rhPREP) (Homo sapiens, UniProt P48147).
T7 sequence (P48147 1-710): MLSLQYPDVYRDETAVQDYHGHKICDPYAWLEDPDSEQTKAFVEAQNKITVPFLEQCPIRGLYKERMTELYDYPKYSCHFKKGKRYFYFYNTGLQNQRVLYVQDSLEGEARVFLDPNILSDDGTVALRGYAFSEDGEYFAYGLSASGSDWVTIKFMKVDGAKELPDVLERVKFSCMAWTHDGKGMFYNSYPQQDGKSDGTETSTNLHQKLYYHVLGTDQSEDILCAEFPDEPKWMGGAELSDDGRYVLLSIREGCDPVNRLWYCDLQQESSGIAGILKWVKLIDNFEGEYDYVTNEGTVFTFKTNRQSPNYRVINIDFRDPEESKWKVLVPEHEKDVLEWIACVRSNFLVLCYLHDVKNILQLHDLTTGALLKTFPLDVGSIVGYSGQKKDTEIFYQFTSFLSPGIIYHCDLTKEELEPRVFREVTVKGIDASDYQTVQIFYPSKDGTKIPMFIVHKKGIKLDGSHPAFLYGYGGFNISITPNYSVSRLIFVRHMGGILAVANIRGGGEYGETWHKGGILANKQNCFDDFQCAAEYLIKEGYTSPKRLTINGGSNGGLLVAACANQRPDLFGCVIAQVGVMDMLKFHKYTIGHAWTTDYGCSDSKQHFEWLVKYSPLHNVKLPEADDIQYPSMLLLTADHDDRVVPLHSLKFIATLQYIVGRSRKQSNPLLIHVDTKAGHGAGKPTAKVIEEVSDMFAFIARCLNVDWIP
Kind of assay: PREP enzymatic activity assay. To be noted: Z-Gly-Pro-AMC substrate. The method, then: as §1

Read-outs that look alike come from different tables or passages of the source.

On to `N#C[C@@H]1CC(F)(F)CN1C(=O)CNC(=O)c1ccc2nc(O)ccc2c1` [Compound 10, (S)—N-(2-(2-cyano-4,4-difluoropyrrolidin-1-yl)-2-oxoethyl)-2-hydroxyquinoline-6-carboxamide], for which the inhibition at 1 µM in assay [1] fell in the range of 25 to 50%.
Regarding `N#C[C@@H]1CC(F)(F)CN1C(=O)CNC(=O)c1ccc(C(N)=O)cc1` [Compound 11, (S)—N-(2-(2-cyano-4,4-difluoropyrrolidin-1-yl)-2-oxoethyl)terephthalamide], the inhibition at 1 µM in assay [1] was 25 to 50%.
For `N#Cc1ccc(C(=O)NCC(=O)N2CC(F)(F)C[C@H]2C#N)cc1C(F)(F)F` [Compound 12, (S)-4-cyano-N-(2-(2-cyano-4,4-difluoropyrrolidin-1-yl)-2-oxoethyl)-3-(trifluoromethyl)benzamide], the inhibition at 1 µM in assay [1] fell in the range of 25 to 50%.
Regarding `N#C[C@@H]1CC(F)(F)CN1C(=O)CNC(=O)c1ccncc1-c1ccc(Cl)c(F)c1` [Compound 111, (S)-3-(4-chloro-3-fluorophenyl)-N-(2-(2-cyano-4,4-difluoropyrrolidin-1-yl)-2-oxoethyl)isonicotinamide], in assay [2], the inhibition at 1 µM was above 50%. The IC50 in assay [2] (Table 2, Z-Gly-Pro-AMC) is below 1000 nM; in assay [2] (Table 3), below 1000 nM; on mouse plasma DPPIV, 1000 to 10000 nM; at mouse plasma FAPα it was below 1000 nM; in assay [3], 1000 to 10000 nM; in assay [4] it was above 10000 nM. Also, the IC50 in assay [5] is above 10000 nM.
In the case of `N#C[C@@H]1CC(F)(F)CN1C(=O)CNC(=O)c1c[nH]c(=O)cc1Cc1ccccc1` [Compound 121, (S)-4-benzyl-N-(2-(2-cyano-4,4-difluoropyrrolidin-1-yl)-2-oxoethyl)-6-oxo-1,6-dihydropyridine-3-carboxamide], the inhibition at 1 µM in assay [2] is above 50%. For the same molecule, the IC50 in assay [2] (Table 2, Z-Gly-Pro-AMC) was below 1000 nM; in assay [2] (Table 3), below 1000 nM; at mouse plasma DPPIV, above 10000 nM; at mouse plasma FAPα it was below 1000 nM; in assay [3], above 10000 nM; in assay [4], 1000 to 10000 nM. For the same molecule, the IC50 in assay [5] lay within 1000 to 10000 nM.
Take `N#C[C@@H]1CC(F)(F)CN1C(=O)CNC(=O)c1cn(-c2ccccc2)c(=O)c2ccccc12` [Example 2, (S)—N-(2-(2-cyano-4,4-difluoropyrrolidin-1-yl)-2-oxoethyl)-1-oxo-2-phenyl-1,2-dihydroisoquinoline-4-carboxamide]: the inhibition at 1 µM in assay [1] lay within 25 to 50%.
In the case of `N#C[C@@H]1CC(F)(F)CN1C(=O)CNC(=O)c1cn(C2CC2)c(=O)c2ccccc12` [Example 3, (S)—N-(2-(2-cyano-4,4-difluoropyrrolidin-1-yl)-2-oxoethyl)-2-cyclopropyl-1-oxo-1,2-dihydroisoquinoline-4-carboxamide], in assay [1], the inhibition at 1 µM was 25 to 50%.
Same read-out and setting: the value for `N#C[C@@H]1CC(F)(F)CN1C(=O)CNC(=O)c1ncnc2c1CCC2` [Example 5, (S)—N-(2-(2-cyano-4,4-difluoropyrrolidin-1-yl)-2-oxoethyl)-6,7-dihydro-5H-cyclopenta[d]pyrimidine-4-carboxamide] was below 25%.
